For data set [1], the target named is JAK1 (Homo sapiens (Human), UniProt P23458). The data set can be described thus: Biochemical JAK and Tyk2 kinase assays (LanthaScreen): JAK1. Particulars: 1 h pre-incubation, ATP at Km; pIC50 converted to pKi by Cheng-Prusoff. An outline of the steps: (§1)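 GST-JAK + GFP-STAT1 peptide, HEPES pH 7.5/MgCl2/EGTA/Brij-35 buffer; cpd preincubation 1 h RT; ATP start, 1 h RT; stop with 10 mM EDTA + 2 nM Tb-anti-pSTAT1; TR-FRET 520/495. 4-parameter IC50 → pKi (Cheng-Prusoff).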
(In general: TR-FRET usually uses a lanthanide donor and a delayed reading to cut background.)

For data set [2], the system named is IL-2 stimulated pSTAT5 in CD4+ T cells isolated from murine splenocytes (JAK3). The data set can be described thus: Inhibition of IL-2 stimulated pSTAT5 in CD4+ T cells isolated from murine splenocytes. Type of data set: cell-based. To be noted: Mus musculus, IL-2 7 ng/ml, read-out: pIC50, inhibition of IL-2 stimulated pSTAT5 (converted). As to the method:
Assay 3: Inhibition of IL-2 Stimulated pSTAT5 in CD4+ T Cells Isolated from Murine Splenocytes
The potency of test compounds for inhibition of interleukin-2 (IL-2) stimulated STATS phosphorylation was measured in the CD4+ T cells isolated from murine splenocytes using AlphaLisa. Because IL-2 signals through JAK3, this assay provides a measure of JAK3 cellular potency in mouse.
Phosphorylated STATS was measured via the AlphaLISA SureFire Ultra pSTAT5 (Tyr694/699) kit (PerkinElmer).
CD4+ T cells were isolated from murine splenocytes via negative selection on a magnetic column (Miltnyi Biotec) and re-suspended in assay media (phenol red-free DMEM (Life Technologies) supplemented with 10% FBS (ATCC)). Cells were seeded at 50,000 cells/well in assay media (2 μL/well). Compounds were serially diluted in DMSO and diluted to 2× final concentration in assay media. Compound was added (4 μl/well) and the cells incubated at 37° C., 5% CO2 for 1 hour, followed by the addition of IL-2 (R&D Systems; final concentration 7 ng/ml) in pre-warmed assay media (2 μL) for 30 minutes. After cytokine stimulation, cells were lysed with 2 μl of 5× AlphaLisa Lysis Buffer (PerkinElmer). The lysate was shaken at 900 rpm for 10 minutes at room temperature (RT). Phosphorylated STATS was measured via the pSTAT5 AlphaLisa kit (PerkinElmer). Freshly prepared acceptor bead mixture was dispensed onto lysate (5 ul) under green filtered <100 lux light. Plates were shaken at 900 rpm for 2 mins, briefly spun down, and incubated for 2 hrs at RT in the dark. Donor beads were dispensed (5 μl) under green filtered <100 lux light. Plates were shaken at 900 rpm for 2 mins, briefly spun down, and incubated overnight at RT in the dark. Luminescence was measured with excitation at 689 nm and emission at 570 nm using an EnVision plate reader (PerkinElmer) under green filtered <100 lux light.
To determine the inhibitory potency of test compounds in response to IL-2, the average emission intensity of beads bound to pSTATS was measured in primary CD4+ T cells isolated from murine splenocytes. IC50 values were determined from analysis of the inhibition curves of signal intensity vs compound concentration. Data are expressed as pIC50 (negative decadic logarithm IC50) values (mean±standard deviation).

For data set [3], the target named is JAK2 (Homo sapiens (Human), UniProt O60674). Nature of the data set: Biochemical JAK and Tyk2 kinase assays (LanthaScreen): JAK2. Particulars: 1 h pre-incubation, ATP at Km; pIC50 converted to pKi by Cheng-Prusoff. The method, then: (§2) Assay 1: Biochemical JAK and Tyk2 Kinase Assays
(§3) A panel of four LanthaScreen JAK biochemical assays (JAK1, 2, 3 and Tyk2) were carried in a common kinase reaction buffer (50 mM HEPES, pH 7.5, 0.01% Brij-35, 10 mM MgCl2, and 1 mM EGTA). Recombinant GST-tagged JAK enzymes and a GFP-tagged STAT1 peptide substrate were obtained from Life Technologies.
(§4) Serially or discretely diluted compounds were pre-incubated with each of the four JAK enzymes and the substrate in white 384-well microplates (Corning) at ambient temperature for 1 h. ATP was subsequently added to initiate the kinase reactions in 10 μL total volume, with 1% DMSO. […] Kinase reactions were allowed to proceed for 1 hour at ambient temperature before a 10 μL preparation of EDTA (10 mM final concentration) and Tb-anti-pSTAT1 (pTyr701) antibody (Life Technologies, 2 nM final concentration) in TR-FRET dilution buffer (Life Technologies) was added. The plates were allowed to incubate at ambient temperature for 1 h before being read on the EnVision reader (Perkin Elmer). Emission ratio signals (520 nm/495 nm) were recorded and utilized to calculate the percent inhibition values based on DMSO and background controls.
(§5) For dose-response analysis, percent inhibition data were plotted vs. compound concentrations, and IC50 values were determined from a 4-parameter robust fit model with the Prism software (GraphPad Software). Results were expressed as pIC50 (negative logarithm of IC50) and subsequently converted to pKi (negative logarithm of dissociation constant, Ki) using the Cheng-Prusoff equation.

Data set [4] concerns IL-2 stimulated pSTAT5 in Tall-1 T cells (JAK3). The data set can be described thus: Cellular JAK3 potency assay: inhibition of IL-2 stimulated pSTAT5 in Tall-1 T cells. Type of data set: cell-based. Particulars: IL-2 300 ng/ml, pSTAT5 AlphaLisa, Tall-1 human T cell line; read-out: Tall-1 (pIC50) (converted). An outline of the steps:
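Human Tall-1 T cells (45,000/well) preincubated with compound 1 h at 37 °C, then stimulated with IL-2 (final 300 ng/ml) for 30 min. Lysates read for pSTAT5 (Tyr694/699) by AlphaLISA luminescence. IC50 from signal-versus-concentration curves, reported as pIC50 (mean±SD).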
A general note: Bead proximity is the source of the signal in Alpha formats.

Data set [5] deals with JAK3 (Homo sapiens (Human), UniProt P52333). The data set can be described thus: Biochemical JAK and Tyk2 kinase assays (LanthaScreen): JAK3. Particulars: for Ki / JAK 3 (pKi): 1 h pre-incubation, ATP at Km, pIC50 converted to pKi by Cheng-Prusoff; for Ki: read-out: JAK 3 (pKi) (converted); for JAK3 (pKi)-JAK1 (pKi): difference of pKi values, selectivity JAK3 over JAK1. An outline of the steps:
as §1

Data set [6] has as its target Tyk2 (Homo sapiens (Human), UniProt P29597). Nature of the data set: Biochemical JAK and Tyk2 kinase assays (LanthaScreen): Tyk2. To be noted: 1 h pre-incubation, ATP at Km; pIC50 converted to pKi by Cheng-Prusoff. As to the method:
as §2, §3, §4, §5

Data set [7] concerns Caco-2 cell monolayers. The data set can be described thus: Caco-2 permeation assay. The format is in vitro ADME, human. To be noted: 5 μM, A to B, + Verapamil 25 μM, 120 minutes. From the text: Assay 5: Caco-2 Permeation Assay
For orientation: Passage across Caco-2 layers is used to estimate intestinal permeability.

Where only a bound is given, the exact number is not on record here.

These results are taken from patent US10851102B2, “Imidazole and triazole containing bicyclic compounds as JAK inhibitors” (THERAVANCE BIOPHARMA R&D IP, LLC, priority 2019, dated 2020).

Chain of JAK3 (P52333 whole entry): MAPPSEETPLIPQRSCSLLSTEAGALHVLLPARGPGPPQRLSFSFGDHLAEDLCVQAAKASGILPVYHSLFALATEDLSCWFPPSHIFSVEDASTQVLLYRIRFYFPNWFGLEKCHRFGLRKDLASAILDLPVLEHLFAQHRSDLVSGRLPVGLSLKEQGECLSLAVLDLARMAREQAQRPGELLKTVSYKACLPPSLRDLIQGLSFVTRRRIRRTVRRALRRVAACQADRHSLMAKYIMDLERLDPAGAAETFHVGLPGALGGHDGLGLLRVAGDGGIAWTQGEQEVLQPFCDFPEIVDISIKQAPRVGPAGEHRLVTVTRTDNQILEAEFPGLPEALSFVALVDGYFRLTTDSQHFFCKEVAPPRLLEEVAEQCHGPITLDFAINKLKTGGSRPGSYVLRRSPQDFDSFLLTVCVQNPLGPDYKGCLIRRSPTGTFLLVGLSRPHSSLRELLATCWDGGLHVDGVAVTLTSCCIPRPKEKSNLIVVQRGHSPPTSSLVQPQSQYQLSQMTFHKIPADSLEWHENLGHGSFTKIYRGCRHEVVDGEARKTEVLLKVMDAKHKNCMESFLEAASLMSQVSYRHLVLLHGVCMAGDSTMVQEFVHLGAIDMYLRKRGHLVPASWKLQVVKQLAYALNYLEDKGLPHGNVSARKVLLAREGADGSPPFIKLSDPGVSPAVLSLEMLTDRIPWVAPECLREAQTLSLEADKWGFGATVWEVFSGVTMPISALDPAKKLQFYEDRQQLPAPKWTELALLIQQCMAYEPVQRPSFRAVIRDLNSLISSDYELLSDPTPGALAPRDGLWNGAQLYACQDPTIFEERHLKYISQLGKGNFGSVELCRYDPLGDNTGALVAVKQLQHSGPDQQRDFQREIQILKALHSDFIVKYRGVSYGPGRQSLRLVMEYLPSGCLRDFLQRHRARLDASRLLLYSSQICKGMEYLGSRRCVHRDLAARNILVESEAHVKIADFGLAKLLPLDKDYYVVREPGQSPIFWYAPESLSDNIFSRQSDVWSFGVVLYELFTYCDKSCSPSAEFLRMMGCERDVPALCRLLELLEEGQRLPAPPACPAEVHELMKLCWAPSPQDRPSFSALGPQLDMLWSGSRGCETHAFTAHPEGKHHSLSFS
Chain of JAK2 (O60674 whole entry): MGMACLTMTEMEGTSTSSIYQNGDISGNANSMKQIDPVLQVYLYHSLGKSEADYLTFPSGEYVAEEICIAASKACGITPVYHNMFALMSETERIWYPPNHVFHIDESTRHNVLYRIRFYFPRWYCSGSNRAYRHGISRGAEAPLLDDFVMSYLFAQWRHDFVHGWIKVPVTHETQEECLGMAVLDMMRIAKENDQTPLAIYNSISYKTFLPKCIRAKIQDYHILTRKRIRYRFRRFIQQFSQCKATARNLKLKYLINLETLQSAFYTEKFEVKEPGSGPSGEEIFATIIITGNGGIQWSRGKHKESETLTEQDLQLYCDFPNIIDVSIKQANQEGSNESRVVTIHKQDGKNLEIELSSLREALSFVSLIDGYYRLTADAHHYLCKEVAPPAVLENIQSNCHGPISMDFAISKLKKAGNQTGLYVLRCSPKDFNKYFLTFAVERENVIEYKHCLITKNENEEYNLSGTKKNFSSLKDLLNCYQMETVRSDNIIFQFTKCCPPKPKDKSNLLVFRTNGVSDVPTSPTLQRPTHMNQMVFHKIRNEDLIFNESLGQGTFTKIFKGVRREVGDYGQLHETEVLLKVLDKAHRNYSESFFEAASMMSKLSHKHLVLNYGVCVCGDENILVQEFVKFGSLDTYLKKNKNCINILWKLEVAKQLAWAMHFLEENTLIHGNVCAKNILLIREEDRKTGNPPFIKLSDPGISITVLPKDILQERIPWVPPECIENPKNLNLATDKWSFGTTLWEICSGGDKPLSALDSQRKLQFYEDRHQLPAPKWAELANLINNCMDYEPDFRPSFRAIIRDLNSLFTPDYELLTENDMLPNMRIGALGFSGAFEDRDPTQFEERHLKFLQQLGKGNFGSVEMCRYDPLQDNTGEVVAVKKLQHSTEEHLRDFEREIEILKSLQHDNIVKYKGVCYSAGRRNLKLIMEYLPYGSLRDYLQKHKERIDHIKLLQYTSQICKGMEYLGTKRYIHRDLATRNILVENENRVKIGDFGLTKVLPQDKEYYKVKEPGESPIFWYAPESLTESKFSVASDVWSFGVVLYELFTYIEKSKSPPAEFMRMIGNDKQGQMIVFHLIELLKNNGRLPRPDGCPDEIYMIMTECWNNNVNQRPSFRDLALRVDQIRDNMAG
Chain of JAK1 (P23458 whole entry): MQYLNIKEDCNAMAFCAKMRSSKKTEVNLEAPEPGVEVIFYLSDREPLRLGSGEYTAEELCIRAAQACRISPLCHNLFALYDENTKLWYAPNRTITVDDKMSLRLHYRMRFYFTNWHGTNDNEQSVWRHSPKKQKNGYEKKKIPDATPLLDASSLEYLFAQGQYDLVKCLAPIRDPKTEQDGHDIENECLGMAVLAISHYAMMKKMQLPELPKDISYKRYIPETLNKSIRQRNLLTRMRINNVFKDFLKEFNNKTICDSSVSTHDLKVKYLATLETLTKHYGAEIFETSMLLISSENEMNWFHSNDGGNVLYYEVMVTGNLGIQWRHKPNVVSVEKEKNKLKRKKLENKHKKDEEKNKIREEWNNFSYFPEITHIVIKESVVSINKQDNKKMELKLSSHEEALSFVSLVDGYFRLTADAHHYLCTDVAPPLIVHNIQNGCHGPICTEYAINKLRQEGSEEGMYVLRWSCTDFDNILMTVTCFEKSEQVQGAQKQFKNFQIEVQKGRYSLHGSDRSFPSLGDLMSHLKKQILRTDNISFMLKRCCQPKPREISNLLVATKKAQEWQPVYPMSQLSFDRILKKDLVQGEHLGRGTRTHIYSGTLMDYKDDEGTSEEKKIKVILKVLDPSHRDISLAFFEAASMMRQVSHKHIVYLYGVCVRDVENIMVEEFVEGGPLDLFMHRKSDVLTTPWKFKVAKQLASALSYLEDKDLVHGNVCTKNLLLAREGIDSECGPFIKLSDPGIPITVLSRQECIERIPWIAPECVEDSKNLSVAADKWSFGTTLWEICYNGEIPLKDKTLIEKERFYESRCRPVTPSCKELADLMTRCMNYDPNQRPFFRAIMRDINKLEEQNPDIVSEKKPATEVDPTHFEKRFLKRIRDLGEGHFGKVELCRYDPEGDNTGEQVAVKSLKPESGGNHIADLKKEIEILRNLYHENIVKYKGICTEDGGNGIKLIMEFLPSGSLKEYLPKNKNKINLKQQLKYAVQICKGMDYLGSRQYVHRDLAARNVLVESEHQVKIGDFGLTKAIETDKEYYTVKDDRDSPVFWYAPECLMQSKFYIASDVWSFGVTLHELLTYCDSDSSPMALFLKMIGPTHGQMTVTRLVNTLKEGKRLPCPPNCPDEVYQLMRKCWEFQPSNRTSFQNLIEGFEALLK
Chain of Tyk2 (P29597 whole entry): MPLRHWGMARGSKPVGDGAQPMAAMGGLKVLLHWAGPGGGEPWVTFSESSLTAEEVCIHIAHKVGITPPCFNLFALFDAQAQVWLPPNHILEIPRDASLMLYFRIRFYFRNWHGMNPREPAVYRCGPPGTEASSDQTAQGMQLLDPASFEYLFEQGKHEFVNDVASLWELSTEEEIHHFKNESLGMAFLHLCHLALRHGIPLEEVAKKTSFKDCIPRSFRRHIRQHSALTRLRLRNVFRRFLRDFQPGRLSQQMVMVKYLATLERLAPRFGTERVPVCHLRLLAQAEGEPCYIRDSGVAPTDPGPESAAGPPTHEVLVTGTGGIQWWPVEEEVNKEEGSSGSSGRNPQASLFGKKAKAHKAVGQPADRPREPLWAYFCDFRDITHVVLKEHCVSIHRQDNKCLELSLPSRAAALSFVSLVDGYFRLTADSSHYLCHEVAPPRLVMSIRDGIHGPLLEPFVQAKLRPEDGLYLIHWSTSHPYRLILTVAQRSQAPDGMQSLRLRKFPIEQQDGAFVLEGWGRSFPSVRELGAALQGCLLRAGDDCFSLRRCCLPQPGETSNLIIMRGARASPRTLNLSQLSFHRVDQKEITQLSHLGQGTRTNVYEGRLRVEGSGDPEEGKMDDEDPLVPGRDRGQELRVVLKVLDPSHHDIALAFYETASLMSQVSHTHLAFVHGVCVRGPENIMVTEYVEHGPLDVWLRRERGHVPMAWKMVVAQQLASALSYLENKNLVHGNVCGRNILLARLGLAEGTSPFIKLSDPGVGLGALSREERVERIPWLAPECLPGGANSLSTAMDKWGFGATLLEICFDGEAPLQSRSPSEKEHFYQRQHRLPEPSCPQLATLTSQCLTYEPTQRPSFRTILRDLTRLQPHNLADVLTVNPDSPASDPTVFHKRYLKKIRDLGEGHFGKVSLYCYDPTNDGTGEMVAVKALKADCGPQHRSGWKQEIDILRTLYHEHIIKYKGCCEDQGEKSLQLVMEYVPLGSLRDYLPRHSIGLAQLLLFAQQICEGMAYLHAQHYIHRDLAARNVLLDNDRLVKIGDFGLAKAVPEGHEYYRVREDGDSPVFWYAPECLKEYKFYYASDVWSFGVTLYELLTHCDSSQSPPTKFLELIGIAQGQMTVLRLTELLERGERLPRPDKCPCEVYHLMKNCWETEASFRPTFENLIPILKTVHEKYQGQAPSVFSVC

As for `C=CC(=O)N1CC(COc2cc(-c3cc(Cl)c(O)c(OC)c3)cn3cncc23)C1` [Example 9, 1-(3-(((6-(3-chloro-4-hydroxy-5-methoxyphenyl)imidazo[1,5-a]pyridin-8-yl)oxy)methyl)azetidin-1-yl)prop-2-en-1-one], the “JAK 1 (pKi)” value in data set [1] is “E (E represents a pKi value of 7 or below (Ki of 100 nM or above))”. In addition, the IC50 in data set [2] is < 1000 nM; in data set [4] it was 31.6 to 200 nM. For the same compound, the “JAK 2 (pKi)” value in data set [3] was “E (E represents a pKi value of 7 or below (Ki of 100 nM or above))”. Moreover, in data set [5], the Ki was 0.1 to 1 nM. For the same compound, the “JAK3 (pKi)-JAK1 (pKi)” value in data set [5] is recorded as “A (A represents a value of 3 or above)”. Also, in data set [6], the “Tyk 2 (pKi)” value is recorded as “E (E represents a pKi value of 7 or below (Ki of 100 nM or above))”. In addition, in data set [7], the “Caco Kp 10^−6 cm/sec” value is “A (A represents a value below 5×10^−6 cm/sec)”.
For the compound `C=CC(=O)N1CC(C(C)(C)Oc2cc(-c3ccc(O)cc3)cn3cncc23)C1` [Example 28], the “JAK 1 (pKi)” value in data set [1] was “E (E represents a pKi value of 7 or below (Ki of 100 nM or above))”. Further, the IC50 in data set [2] was < 1000 nM. Further, the “JAK 2 (pKi)” value in data set [3] is given as “E (E represents a pKi value of 7 or below (Ki of 100 nM or above))”. In addition, in data set [4], the IC50 was 31.6 to 200 nM. Also, in data set [5], the “JAK 3 (pKi)” value is listed as “A (A represents a pKi value≥10 (Ki≤0.1 nM))” and the “JAK3 (pKi)-JAK1 (pKi)” value is “A (A represents a value of 3 or above)”. In addition, in data set [6], the “Tyk 2 (pKi)” value is “E (E represents a pKi value of 7 or below (Ki of 100 nM or above))”. The “Caco Kp 10^−6 cm/sec” value in data set [7] is “A (A represents a value below 5×10^−6 cm/sec)”.
As to `C=CC(=O)N1CC(COc2cc(-c3c(F)cc(O)cc3F)cn3cncc23)C1` [Example 7, 1-(3-(((6-(2,6-difluoro-4-hydroxyphenyl)imidazo[1,5-a]pyridin-8-yl)oxy)methyl)azetidin-1-yl)prop-2-en-1-one], the “JAK 1 (pKi)” value in data set [1] is on record as “E (E represents a pKi value of 7 or below (Ki of 100 nM or above))”. In addition, in data set [2], the IC50 is < 1000 nM. Also, the “JAK 2 (pKi)” value in data set [3] is recorded as “E (E represents a pKi value of 7 or below (Ki of 100 nM or above))”. In addition, the IC50 in data set [4] is 31.6 to 200 nM. Also, in data set [5], the Ki was 0.1 to 1 nM and the “JAK3 (pKi)-JAK1 (pKi)” value was “A (A represents a value of 3 or above)”. The “Tyk 2 (pKi)” value in data set [6] is recorded as “E (E represents a pKi value of 7 or below (Ki of 100 nM or above))”. The “Caco Kp 10^−6 cm/sec” value in data set [7] was “B (B represents a value between 5×10^−6 and 10×10^−6 cm/sec)”.
Take `C=CC(=O)N1CC(COc2cc(-c3cc(F)c(O)c(Cl)c3)cn3cncc23)C1` [Example 31]: in data set [1], the “JAK 1 (pKi)” value is listed as “E (E represents a pKi value of 7 or below (Ki of 100 nM or above))”. The IC50 in data set [2] was < 1000 nM. The “JAK 2 (pKi)” value in data set [3] is recorded as “E (E represents a pKi value of 7 or below (Ki of 100 nM or above))”. The IC50 in data set [4] was 31.6 to 200 nM. Also, in data set [5], the “JAK 3 (pKi)” value was “A (A represents a pKi value≥10 (Ki≤0.1 nM))” and the “JAK3 (pKi)-JAK1 (pKi)” value was “A (A represents a value of 3 or above)”. Also, in data set [6], the “Tyk 2 (pKi)” value is recorded as “E (E represents a pKi value of 7 or below (Ki of 100 nM or above))”. Further, the “Caco Kp 10^−6 cm/sec” value in data set [7] is listed as “A (A represents a value below 5×10^−6 cm/sec)”.
For `C=CC(=O)N1CC(COc2cc(-c3ccc(O)c(F)c3F)cn3cncc23)C1` [Example 8, 1-(3-(((6-(2,3-difluoro-4-hydroxyphenyl)imidazo[1,5-a]pyridin-8-yl)oxy)methyl)azetidin-1-yl)prop-2-en-1-one], the “JAK 1 (pKi)” value in data set [1] is “E (E represents a pKi value of 7 or below (Ki of 100 nM or above))”. Moreover, the IC50 in data set [2] is < 1000 nM. Further, in data set [3], the “JAK 2 (pKi)” value is listed as “E (E represents a pKi value of 7 or below (Ki of 100 nM or above))”. Besides, the IC50 in data set [4] was 31.6 to 200 nM. In addition, in data set [5], the “JAK 3 (pKi)” value is “A (A represents a pKi value≥10 (Ki≤0.1 nM))” and the “JAK3 (pKi)-JAK1 (pKi)” value is reported as “A (A represents a value of 3 or above)”. Further, in data set [6], the “Tyk 2 (pKi)” value is “E (E represents a pKi value of 7 or below (Ki of 100 nM or above))”. Also, in data set [7], the “Caco Kp 10^−6 cm/sec” value was “B (B represents a value between 5×10^−6 and 10×10^−6 cm/sec)”.
